Experimental data taken from US20220041691A1, “METHODS FOR DIAGNOSING OR TREATING POST-TRAUMATIC STRESS DISORDER, AND COMPOSITIONS THEREFOR” (Centre for Addiction and Mental Health, priority 2018, published 2022).
“Also recorded” adds a separate entry of the source.

Key:
nuclear GR [1] = assay: Nuclear protein isolation, nuclear GR in mouse brain slices; assay type: cell-based; conditions: 10 μM, 30 min, vs TAT or untreated controls, p<0.001, n=3
Protocol: (§1) To test this hypothesis, the effect of TAT-GRpep on GR-FKBP52 levels was examined using co-immunoprecipitation. […] Similar results were also obtained using confocal microscope in primary mouse neuron cultures.
(§2) Acute brain slices (350 μm thick) were prepared from C57Bl/6 mice with a McIlwain tissue chopper (Mickle Laboratory Engineering, Gomshall, United Kingdom). After being dissected from the brain, mouse cerebral hemispheres were left for 5 min in ice-cold artificial cerebrospinal fluid (aCSF) containing 126 mM NaCl, 2.5 mM KCl, 1 mM MgCl2, 1 mM CaCl2, 1.25 mM KH2PO4, 26 mM NaHCO3 and 20 mM glucose, which was bubbled continuously with carbogen (95% O2/5% CO2). Freshly cut slices were placed in an incubating chamber with carbogenated aCSF and recovered from stress at 37° C. for 1 hour. Slices were then treated with TAT or TAT-GRpep and harvested for Western blot analysis.
(§3) Nuclear protein isolation assays were performed in acute mouse brain slices or mouse brain tissue using the Nuclear Protein Extraction Kit (Bio Basic Inc., Amherst, N.Y.). Briefly, after treatment with TAT or TAT-GRpep, mouse brain slices were harvested for nuclear protein extraction according to the manufacturer's instructions.

GR-FKBP52 complex = assay: Co-immunoprecipitation of GR-FKBP52 complex in mouse brain slices; assay type: cell-based; conditions: 10 μM, 30 min, vs untreated controls or TAT alone, p<0.05, n=3
Protocol: as §1
(§4) Co-immunoprecipitation and Western blot analyses were performed as previously described.^24, 25, 26 For co-immunoprecipitation, 500˜1000 μg solubilized protein was extracted from whole mouse brain and incubated with primary antibody or control IgG (2˜4 μg) for 4 hrs at 4° C., followed by the addition of 25 μl protein A/G plus agarose (Santa Cruz Biotechnology) for 12 hrs. Pellets were washed, boiled for 5 min in SDS sample buffer and subjected to SDS-PAGE. 50˜100 μg of total protein extract was used as control in each experiment. After transfer of proteins into nitrocellulose, membranes were Western blotted with the primary antibodies. The intensity of protein level was quantified by densitometry (software: ImageLab, Bio-Rad).
as §2, with “Freshly cut slices were placed in an incubating chamber with carbogenated aCSF and recovered from stress at 37° C. for 1 hour. Slices were then treated with TAT or TAT-GRpep and harvested for Western blot analysis.” left out

GR-FKBP51 complex [2] = biological target: T1, GR-FKBP51 complex (Mus musculus, UniProt Q64378); assay: Co-immunoprecipitation of GR-FKBP51 complex in brain and lymphocyte lysate of fear-conditioned mice injected with peptide; assay type: in vivo
T1 construct: from tissue; host or cells: C57Bl/6 mouse brain (acute slices; whole-brain lysate) and blood lymphocytes
T1 sequence (Q64378 1-456): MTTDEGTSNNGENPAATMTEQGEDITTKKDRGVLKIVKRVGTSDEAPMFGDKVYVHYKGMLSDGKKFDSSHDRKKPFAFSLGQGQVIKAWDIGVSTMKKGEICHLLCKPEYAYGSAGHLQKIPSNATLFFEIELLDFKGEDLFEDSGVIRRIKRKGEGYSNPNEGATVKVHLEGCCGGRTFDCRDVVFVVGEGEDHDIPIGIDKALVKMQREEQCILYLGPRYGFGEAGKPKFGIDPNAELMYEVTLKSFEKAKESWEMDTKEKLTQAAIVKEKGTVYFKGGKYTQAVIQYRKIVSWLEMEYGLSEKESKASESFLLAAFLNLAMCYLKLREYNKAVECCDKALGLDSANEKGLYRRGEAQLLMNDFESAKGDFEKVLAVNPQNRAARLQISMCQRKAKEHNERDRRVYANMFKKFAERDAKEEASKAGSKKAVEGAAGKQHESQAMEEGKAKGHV
Protocol: Furthermore, testing was performed to determine whether disrupting the GR-FKBP51 complex reduced consolidation of cued fear memory. Thus, TAT or TAT-GRpep was administered two hours after the end of fear conditioning training (FIG. 4C), before five consecutive daily extinction sessions of cue exposure without shock.
as §4

GR-FKBP51 complex [3] = biological target: T1, GR-FKBP51 complex; assay: Co-immunoprecipitation of GR-FKBP51 complex in acute mouse brain slices treated with peptide; assay type: cell-based; conditions: versus control TAT peptide
Protocol: Thus, it is concluded that the GRNT-4-1 region is important for GR-FKBP51 complex formation, and that GRpep disrupted the GR-FKBP51 complex.
as §4
as §2, with “Freshly cut slices were placed in an incubating chamber with carbogenated aCSF and recovered from stress at 37° C. for 1 hour. Slices were then treated with TAT or TAT-GRpep and harvested for Western blot analysis.” left out

nuclear GR [4] = assay: Nuclear protein isolation, nuclear GR in brain of fear-conditioned mice; assay type: in vivo, mouse; conditions: 3 nmol/g i.p, vs TAT alone or saline, p<0.05, n=4
Protocol: as §3

fear-conditioned mice = assay: Cued fear conditioning, peptide injected into right amygdala or motor cortex; assay type: in vivo, mouse
Protocol: Next, testing was performed to determine whether disrupting the GR-FKBP51 complex could reduce freezing behaviors in fear-conditioned mice as a model for PTSD-related symptoms. […] The animals were then subjected to two days of extinction, where the same cues were presented without foot shock, before cued fear memory was assessed. One hour before the fear memory assessment, animals were injected with either control peptide (TAT) or treatment peptide (TAT-GRpep) into the right amygdala. […] However, two-way ANOVA confirmed a significant effect of the cue (F1, 46=10.387, p<0.01) and peptide (F1,46=7.708, p<0.01). […] Both treatment groups reacted similarly to the cue (p=NS; FIG. 3E).
Some of the animals were later subjected to implantation of cannula into either amygdala (AP−1.5, LM−3.0, DV−4.8) or motor cortex (AP+2.1, LM−2.0, DV−1.0). Following surgeries, animals were allowed one week to recover before subjected to any experimental procedures.
Animals were first given a five-minute habituation to the apparatus (Habitest, Colbourne Instruments). Then, animals were exposed to 30 seconds of cue exposure (an in-house white light), which co-terminated with one second of foot-shock (0.5 mA). […]
The expression of fear (in a different context from training) was assessed 24 hours after the last extinction training. […] The duration of freezing behaviors was recorded by a blinded experimenter. […]

GRKKRRQRRRPQSPWRSDLLIDENCLL (Amino Acid Sequence of TAT-GRpep Peptide)
nuclear GR level / proportion of GR in the nucleus (nuclear GR [1]): higher levels of nuclear GR; also recorded: significantly increased
GR-FKBP52 complex (FKBP52 co-immunoprecipitated by GR antibody) (GR-FKBP52 complex): more FKBP52 was co-immunoprecipitated by GR antibody; also recorded: significantly increased the amount of GR-FKBP52 complex
GR-FKBP51 complex level in brain (co-immunoprecipitation) (GR-FKBP51 complex [2]; brain lysate of fear-conditioned mice injected with TAT or TAT-GRpep, p<0.05, n=3): able to block the increase of GR-FKBP51 complex; also recorded: disrupt the GR-FKBP51 complex
GR-FKBP51 complex level in lymphocyte lysate / peripheral blood (co-immunoprecipitation) (GR-FKBP51 complex [2]; lymphocyte lysate from blood of fear-conditioned mice, p<0.01 vs TAT, n=4): able to disrupt the GR-FKBP51 complex
GR-FKBP51 complex level (co-immunoprecipitation) (GR-FKBP51 complex [3]): able to disrupt the GR-FKBP51 complex; also recorded: reduced GR-FKBP51 levels
nuclear GR level / GR nuclear localization (nuclear GR [4]): higher levels of nuclear GR; also recorded: increased
freezing behavior, cued fear memory assessment (fear-conditioned mice; injected into right amygdala one hour before assessment, after two days of extinction, vs control peptide, p<0.01): significantly lower level of freezing behavior; also recorded: significantly less freezing than controls
freezing behavior, cued fear memory assessment (fear-conditioned mice; peptide infused into motor cortex instead of amygdala, p=NS): did not affect freezing
